Laboratory results published in article PMC8169668, “Discovery of a cooperative mode of inhibiting RIPK1 kinase” (Cell Discovery, 2021).

Assays:
Format in all cases: cell-based
RIPK1 [1] = biological target: T1, RIPK1 (Homo sapiens, UniProt Q13546, S161A); experiment: CETSA; p-S166 autophosphorylation blot
T1 construct: HA-tagged hRIPK1 S161A reconstituted in RIPK1-deficient Jurkat cells
T1 sequence (Q13546 1-671 S161A): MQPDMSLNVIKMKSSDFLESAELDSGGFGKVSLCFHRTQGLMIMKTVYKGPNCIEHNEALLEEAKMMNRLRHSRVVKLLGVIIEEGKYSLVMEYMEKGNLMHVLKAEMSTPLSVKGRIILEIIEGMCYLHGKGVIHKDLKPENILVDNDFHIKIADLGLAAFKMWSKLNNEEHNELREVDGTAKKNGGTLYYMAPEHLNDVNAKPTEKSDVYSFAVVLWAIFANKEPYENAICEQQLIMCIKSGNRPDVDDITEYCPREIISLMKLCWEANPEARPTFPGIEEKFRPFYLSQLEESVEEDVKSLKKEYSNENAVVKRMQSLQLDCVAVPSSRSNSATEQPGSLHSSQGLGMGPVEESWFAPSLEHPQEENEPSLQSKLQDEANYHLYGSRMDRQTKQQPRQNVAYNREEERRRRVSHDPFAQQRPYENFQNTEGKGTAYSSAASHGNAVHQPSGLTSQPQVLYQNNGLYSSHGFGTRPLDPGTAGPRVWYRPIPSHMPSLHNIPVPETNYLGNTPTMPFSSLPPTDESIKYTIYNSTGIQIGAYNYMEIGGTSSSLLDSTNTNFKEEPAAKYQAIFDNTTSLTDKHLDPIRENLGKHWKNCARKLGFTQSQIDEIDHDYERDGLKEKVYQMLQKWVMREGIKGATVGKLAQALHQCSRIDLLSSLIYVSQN

RIPK1 [2] = biological target: T2, RIPK1 (Mus musculus, UniProt Q60855); experiment: CETSA in MEFs; p-S166 blot of mRIPK1-FKBP in L929 cells
T2 construct: endogenous RIPK1 (MEFs)
T2 sequence (Q60855 1-656): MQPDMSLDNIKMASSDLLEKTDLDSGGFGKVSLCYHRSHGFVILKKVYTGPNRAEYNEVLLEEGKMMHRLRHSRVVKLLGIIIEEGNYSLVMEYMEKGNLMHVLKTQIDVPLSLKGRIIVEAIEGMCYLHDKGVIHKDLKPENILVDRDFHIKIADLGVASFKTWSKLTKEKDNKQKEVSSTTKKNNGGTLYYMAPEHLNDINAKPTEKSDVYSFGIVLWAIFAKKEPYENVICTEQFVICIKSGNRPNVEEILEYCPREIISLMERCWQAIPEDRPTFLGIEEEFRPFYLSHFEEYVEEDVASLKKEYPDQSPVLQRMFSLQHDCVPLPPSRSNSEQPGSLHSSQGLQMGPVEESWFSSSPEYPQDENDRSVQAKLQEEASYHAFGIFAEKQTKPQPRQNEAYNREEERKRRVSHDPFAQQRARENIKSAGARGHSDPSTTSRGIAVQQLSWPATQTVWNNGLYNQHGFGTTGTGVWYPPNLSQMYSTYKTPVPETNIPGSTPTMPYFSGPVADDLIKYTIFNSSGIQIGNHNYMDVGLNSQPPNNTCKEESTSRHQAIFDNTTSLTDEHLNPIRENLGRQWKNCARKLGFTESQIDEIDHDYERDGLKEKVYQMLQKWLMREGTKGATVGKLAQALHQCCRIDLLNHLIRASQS

RIPK1 [3] = biological target: T3, RIPK1 (Homo sapiens, UniProt Q13546, L159V/D180S); experiment: p-S166 autophosphorylation blot, dose response
T3 construct: residues 1–330, Flag-tagged, in 293T cells
T3 sequence (Q13546 1-330 L159V/D180S): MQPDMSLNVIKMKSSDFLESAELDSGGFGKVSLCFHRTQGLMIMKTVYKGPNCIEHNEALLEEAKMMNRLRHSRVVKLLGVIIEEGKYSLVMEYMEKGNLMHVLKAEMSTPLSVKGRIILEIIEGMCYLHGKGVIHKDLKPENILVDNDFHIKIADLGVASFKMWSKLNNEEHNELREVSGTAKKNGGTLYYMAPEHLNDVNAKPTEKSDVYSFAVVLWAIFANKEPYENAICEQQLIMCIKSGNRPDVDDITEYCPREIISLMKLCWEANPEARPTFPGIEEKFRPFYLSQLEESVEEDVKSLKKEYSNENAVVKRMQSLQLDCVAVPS

Compound: Cc1ccc(C2CC(=O)NC(SCC(=O)Nc3nccs3)=C2C#N)cc1 (stereo not drawn) [Nec-34]
- CETSA; p-S166 autophosphorylation blot (RIPK1 [1]): Nec-34 stabilized reconstituted S161A mutant RIPK1 as well as WT-RIPK1 in the soluble fraction under elevated temperatures
- CETSA in MEFs; p-S166 blot of mRIPK1-FKBP in L929 cells (RIPK1 [2]): Nec-34 is able to bind endogenous RIPK1 in situ to increase its thermo-resistance
- p-S166 autophosphorylation blot, dose response (RIPK1 [3]): Nec-34 was more potent in inhibiting L159V/D180S hRIPK1 than WT-hRIPK1
